Measured values as given in patent US20210388320A1, “DIFFERENTIATION-INDUCED CELL POPULATION FROM WHICH […] CELLS HAVE BEEN REMOVED, USE OF SAME, AND METHOD FOR PRODUCING SAME” (priority 2014, published 2021).

What was measured:
[1] = tested on: human iPS cell strain 253G1; test: Cell proliferation assay (CCK-8 assay) with JQ1 (Example 6); type: cell-based; settings: 0.2 μM or more of JQ1, 96 hours later
Protocol: Human iPS cell strain 253G1 was seeded in a 12-well plate (cell density: 20% confluency).
Thereafter, cell proliferation assay was performed 96 hours after addition (FIG. 10).

[2] = tested on: TRA-1-60 positive cells in iPS-CM derived from human iPS cell strain MYH-GIP4; test: TRA-1-60 positive rate in iPS-CM treated with JQ1 (Example 7); type: cell-based
Protocol: After differentiation of undifferentiated pluripotent stem cells is induced, a cell dissociation reagent, such as Accutase, is applied to about 1×10^5 to 5×10^5 differentiated cells at 37° C. for 5 minutes, and differentiated cells are dissociated and collected by centrifugation. The differentiated cells are suspended in […] of PBS, and an anti-human TRA-1-60 antibody and an isotype control antibody, both of which are fluorescently labeled, are each added. Then, the resultants are each reacted at 4° C. for 20 minutes in a dark place. After the differentiated cells are washed with PBS and collected by centrifugation, they are each suspended in […] of PBS, passed through a cell strainer, and then collected in FACS tubes. In flow cytometry, fluorescent emission is detected by a detector corresponding to labeled fluorescence, and quantified. Fractions stained with the isotype control antibody are defined as negative fractions, whereas fractions with a higher fluorescence intensity are defined as positive fractions. Among fractions stained with the anti-human TRA-1-60 antibody, the ratio belonging to the positive fractions is expressed as a percentage.
iPS-CM derived from human iPS cell strain MYH-GIP4 was seeded in a 12-well plate (cell density: 90% confluency). […] Thereafter, the TRA-1-60 positive rate was quantified 96 hours after addition. […]

[3] = tested on: normal human dermal fibroblasts (NHDF); test: Microscope observation and crystal violet staining after JQ1 addition (Example 5); type: cell-based; settings: JQ1 up to 10 μM, 96 hours
Protocol: (§1) Human iPS cell strain 253G1 was seeded in a 12-well plate (cell density: 20% confluency). Human fibroblasts (NHDF) were seeded in a 12-well plate (cell density: 50% confluency).
(§2) Thereafter, microscope observation was performed 96 hours later, and crystal violet staining was carried out to visualize the cells (FIG. 9).

[4] = tested on: human iPS cell strain 253G1; test: as above; type: cell-based; settings: 0.2 μM or more of JQ1, 96 hours later
Protocol: as §1, §2

[5] = tested on: normal human dermal fibroblasts (NHDF); test: Microscope observation of cell death after BV addition, normal fibroblasts (Example 1); type: cell-based; settings: 5 μg/ml BV, 72 hours after addition
Protocol: Similarly, in order to examine the influence of BV on normal human dermal fibroblasts (NHDF), the same experiment as in Example 1 was conducted.
Human fibroblasts (NHDF) were seeded in a 12-well plate (cell density: 50% confluency). Forty-eight hours after seeding, 0, 0.05, and 5 μg/ml of BV was added to each well (the agent-containing medium was exchanged every 24 hours). Thereafter, microscope observation was performed every 24 hours.

NHDF [6] = test: Cell proliferation assay (CCK-8 assay) with BV (Example 3); type: cell-based, human; settings: 0.1-50 μg/ml BV, 72 hours
Protocol: (§3) In order to clarify how the number of human iPS cells changed with various BV concentrations and BV treatment times, BV was added in vitro to human iPS cells, cell proliferation assay (CCK-8 assay), which reflects the number of cells, was performed, and viable cells were evaluated quantitatively.
(§4) Three human iPS cell strains (253G1, MYH-GIP4, and 201B7) and NHDF were each seeded in a 12-well plate (cell density: 20% confluency). However, the cell density of NHDF was set to 50% confluency.
(§5) Forty-eight hours after seeding, 0, 0.1, 0.25, 0.5, 1, 2.5, 5,10, 25, and 50 μg/ml of BV was added to each well (the agent-containing medium was exchanged every 24 hours). Thereafter, cell proliferation assay was performed 72 hours after addition.

[7] = tested on: Human iPS cell strain MYH-GIP4; test: Microscope observation of cell death after BV addition (Example 1); type: cell-based; settings: 5 μg/ml BV, 48 to 72 hours later
Protocol: Human iPS cell strain MYH-GIP4 was seeded in a 12-well plate (cell density: 20% confluency). Forty-eight hours after seeding, 0, 0.05, and 5 μg/ml of an anti-CD30 antibody-binding agent (general name: Brentuximab vedotin, abbreviated as “BV”) (trade name: Adcetris (registered trademark)) was added to each well (the agent-containing medium was exchanged every 24 hours). Thereafter, microscope observation was performed every 24 hours. Since Adcetris (registered trademark) contains additives, in addition to BV, numerical values converted from the net weight of BV were described (i.e., “0, 0.05, and 5 μg/ml as BY”).

[8] = tested on: Lin28 expression in iPS-CM derived from human iPS cell strain 253G1; test: Lin28 expression by quantitative PCR in iPS-CM treated with BV (Example 4); type: cell-based
Protocol: This method is targeted for human iPS cell-derived cardiomyocytes (iPS-CM). iPS-CM is considered to contain tumorigenic undifferentiated cells, in addition to cardiomyocytes.
The method for inducing differentiation into cardiomyocytes was performed according to the following document: Matsuura K, et al. Creation of human cardiac cell sheets using pluripotent stem cells. Biochem Biophys Res Commun, 2012, and 425(2) pp. 321-7. iPS-CM derived from human iPS cell strain 253G1 was seeded in a 12-well plate (cell density: 90% confluency). Forty-eight hours after seeding, 0, 5, and 10 μg/ml of BV was added to each well (the agent-containing medium was exchanged every 24 hours). Thereafter, mRNA was extracted 72 hours and 96 hours after addition. Lin28 expression levels were quantified by quantitative PCR.

NHDF [9] = test: Cell proliferation assay (CCK-8 assay) with BV (Example 2); type: cell-based, human; settings: 0-50 μg/ml BV, 24-72 hours
Protocol: as §3
Three human iPS cell strains (1231A3, MYH-GIP4, and 253G1) and NHDF were each seeded in a 12-well plate (cell density: 20% confluency). However, the cell density of NHDF was set to 50% confluency.
Forty-eight hours after seeding, 0, 5, 25, and 50 μg/ml of BV was added to each well (the agent-containing medium was exchanged every 24 hours). Thereafter, cell proliferation assay was performed 24 hours, 48 hours, and 72 hours after addition.

[10] = tested on: human iPS cell strains (253G1, MYH-GIP4, and 201B7); test: Cell proliferation assay (CCK-8 assay) with BV (Example 3); type: cell-based; settings: 72 hours after treatment with 50 μg/ml BV, all the human iPS cells
Protocol: as §3, §4, §5

Row | Molecule | cell proliferation rate [1] [%] | TRA-1-60 positive rate ([2]; 1 μM JQ1, 96 hours after addition) [%] | TRA-1-60 positive rate ([2]; 5 μM JQ1, 96 hours after addition) [%] | cell death (microscope observation, crystal violet staining) [3] | cell death (microscope observation, crystal violet staining) [4] | induction of cell death (macroscopic observation) [5] | effect of BV on cell proliferation (NHDF [6]) | cell death (microscope observation) [7] | expression of undifferentiated marker Lin28, of the control group (BV: 0 μg/ml) ([8]; 72-hour treatment, BV 5 and 10 μg/ml) | Lin28 expression level, pure human iPS cells regarded as 100% ([8]; 72nd hour, BV-added groups) | effect of BV on number of cells (NHDF [9]) | cell proliferation [10] [%]
1 | Cc1sc2c(c1C)C(c1ccc(Cl)cc1)=N[C@@H](CC(=O)OC(C)(C)C)c1nnc(C)n1-2 [JQ1] | ≤ 10 | 0.2 | 0.1 | cell death was not observed | complete cell death was induced | – | – | – | – | – | – | –
2 | Brentuximab vedotin [BV] | – | – | – | – | – | induction of cell death was not observed macroscopically | hardly affected | cell death was partially induced | about 50% | about 0.3% | hardly affected | ≤ 20
